Reference: US20040091900A1, “Materials and methods for providing plants with increased resistance to environmental stress” (priority 2002, published 2004)

Legend:
SspI = assay: Compatible solute assay: protection of SspI activity during heat treatment; assay type: biochemical; details: for protection of SspI activity / protection of SspI function: 50° C. for 15 min; for protection of SspI activity, time course: at least 25 min at 50° C., without sugars almost 90% activity lost; for protection of SspI function: 14 mM sugar (physiological concentration)
Method: SspI (New England Biolabs) is a bacterial restriction enzyme that cuts double stranded DNA. In this assay it cuts pGEX-4T-2 circular plasmid twice and generates 3.77 kb and 1.19 kb bands in the reaction buffer (50 mM NaCl, 100 mM Tris-HCL, […] MgCl2, 0.025% Triton X-100 pH 7.5 at 25° C.). Five units of SspI in reaction buffer in the absence of maltose were exposed to 50° C. for 15 min where 50% of the enzyme activity was lost and also exposed to heat temperature in the presence of 14, 100, 200 and 400 mM maltose. Then substrate, 0.5 μg of pGEX-4T-2 circular plasmid (Amersham Biosciences, Piscataway, N.J.), was added to the reaction mixture and incubated at 37 ° C. for 1 hr. […] To visualize the products, 1% agarose gel was run and 22 μl of total 50 μl reaction was loaded on to gel. The gel was run at 100 V for 30 min and stained with EtBr to visualize the product. The top band was quantified to assess the protection by maltose. Also, the same assay was done using sucrose, trehalose and glucose to compare the ability of maltose as a compatible solute. A time course experiment was conducted where SspI was treated in the absence and in the presence of 400 mM maltose, glucose, sucrose and trehalose at 50° C. for 0, 5, 10, 15, 20 and 25 min.
Compatible solutes can stabilize proteins and membranes and contribute to cell osmotic potential during stress. The compatible solute potential of maltose was tested for three different enzymes namely; SspI, Glucose-6-phosphate dehydrogenase (G6PDH) and alcohol dehydrogenase (ADH). The restriction enzyme, SspI (FIG. 4A), cuts the substrate plasmid (pGEX-4T-2; 4.97 kb) twice leading to 1 and 4 kb plasmid fragments, when the enzyme is fully functional. […] When the intensity of the 5 kb top band and the 4 kb band was equal, the enzyme was considered to have lost 50% activity. Sspl was exposed to 50° C. for 15 min (FIG. 4A) in the absence of maltose (0 mM as a control) and in the presence of (14, 100, 200, and 400 mM) maltose. The 5 kb top band, which represented the loss of activity, was quantified to determine relative protection. When the enzyme was fully active, the top band was not visible (FIG. 4A, lane C) and the intensity of the top band increased with increased loss of enzyme activity (lane 2; 0 mM sugars). […] This protection increased with the increasing maltose concentration (FIG. 4A). At 200 and 400 mM, the intensity of the top band was much less compared to 0 mM maltose.

[1] = tested on: photosynthetic electron transport chain of thylakoid membranes; assay: In vitro heat shock of thylakoids, whole electron transport chain assay with DCPIP; assay type: biochemical, Pea; details: 40° C. for 4 min, 30% activity remained without sugars
Method: (§1) Pea chloroplast was isolated according to Cline (1993). Aerial portions of 50 g pea plant were chopped into small pieces into 200 ml of ice cold GR-buffer (50 mM HEPES/adjust pH 7.5 with KOH, 0.33 M sorbitol, 1 mM MgCl2, 1 mM MnCl2, 2 mM EDTA, 5 mM Na-ascorbate, 1%, BSA) and homogenized using a probe (named PTA 35/2 m). The homogenate was filtered through 1 layer of Mira cloth and centrifuged at 2000×g for 3 min in a swing-out rotor. Pellet was resuspended in GR buffer, overlayed on a Percoll gradient and centrifuged at 2000×g for 15 min in a swing out rotor. Intact plastids were collected, diluted three times with buffer (50 MM HEPES/KOH pH 8, 0.33 M sorbitol), and pelleted 1.500×g for 5 min. The pellet was resuspended in 25 ml of buffer (50 mM HEPES/KOH pH 8, 0.33 M sorbitol) and chlorophyll content was quantified.
(§2) Thylakoids were isolated according to Santarius (1996). The isolated chloroplast pellets were ruptured by resuspending at 1 mg/ml in 10 mM Hepes/KOH, pH 8, 5 mM MgCl2, and incubating 2 min on ice. Then, wash buffer 1:1 (70 mM KCl, 30 mM NaNO3, 20 mM K2SO4, 5 mM MgCl2, and 5 mM Hepes/KOH pH 7.5) was added and centrifuged 3300×g for 8 min to collect thylakoid membranes. The pellet was washed at 1 mg/ml in wash buffer and centrifuged at 3300×g for 8 min. Thylakoids were resuspended in wash buffer corresponding to 1 mg/ml chlorophyll.
Heat shock: Aliquots of 0.2 ml thylakoid in wash buffer (70 mM KCl, 30 mM NaNO3, 20 mM K2SO4, 5 mM MgCl2, and 5 mM Hepes/KOH pH 7.5) corresponding to 0.5 mg/ml chlorophyll were, exposed to heat shock at 40° C. for 4 min in the absence and presence of 2.5, 14, 28, 56, and 112 mM maltose, glucose and trehalose. Full activity of the whole electron transport chain was measured after isolation of thylakoid membranes. Five independent experiments with 3 replications each were done.
(§3) Whole electron transport chain assay, with DCPIP: This assay was done according to Hipkins and Baker (1986). Assay buffer included 0.1 M sorbitol, 50 mM Hepes-KOH pH 7.6, 5 mM NaCl, 5 mM MgCl2, 0.1 mM DCPIP. The reaction was mixed after addition of thylakoid corresponding to 25 μg/ml chlorophyll and illuminated for 10 sec at 200 μmol photons m^−2 sec^−1 light intensity. Activity of electron transport chain was determined using redox dye DCPIP reduction at 595 nm.
Maltose, trehalose and glucose were tested in vitro for compatible solute properties using thylakoid membranes for the functionality of electron transport chain against heat denaturation (FIG. 5) and freezing stress (FIG. 6). Pea thylakoids were exposed to 40° C. for 4 min (FIG. 5), where 30% of electron transport chain activity remained in the absence of compatible solute sugars. Electron transport chain activity was followed by reduction of a redox dye 2,6-dichlorophenolindophenol (DCPIP), which accepts electrons from QB of PSII and FeSA of PSI (Häder and Tevini, 1987). At physiological concentrations of 2.5 and 14 mM maltose, photosynthetic electron transport chain activity was protected 3 and 5%. respectively, during heat shock.

[2] = tested on: photosynthetic electron transport chain of thylakoid membranes; assay: In vitro freezing stress of thylakoids, whole electron transport chain assay with DCPIP; assay type: biochemical, Pea; details: −15° C. for 20 hr; for electron transport chain activity protection after freezing: 60% reduction without sugars
Method: as §1, §2
Freezing stress: Aliqutots of 0.2 ml thylakoid in wash buffer (70 mM KCl, 30 mM NaNO3, 20 mM K2SO4, 5 mM MgCl2, and 5 mM Hepes/KOH pH 7.5) corresponding to 0.5 mg/ml chlorophyll were exposed to freezing stress at −15° C. for 20 hrs in absence and presence of 2.5, 14, 28, 56, and 112 mM maltose, glucose and trehalose. Full activity of the whole electron transport chain was measured after isolation of thylakoid membranes. Four independent experiments with three (3) replications each were done.
as §3
Pea thylakoids were frozen (FIG. 6) at −15° C. for 20 hr, which caused a 60% reduction of electron transport chain activity. […] This protection increased gradually to 93% with the increasing concentration of maltose and was very similar to that of trehalose. Glucose at 112 mM gave 47% protection, which was much less than that of maltose or trehalose.

[3] = molecular target: T1, Glucose-6-phosphate dehydrogenase (G6PDH) (Leuconostoc mesenteroides, UniProt P11411); assay: Compatible solute assay: protection of G6PDH activity during heat shock; assay type: biochemical; details: 14, 100, 200, 400 mM sugar, 48° C. for 15 min
T1 construct: purchased Worthington Biochemical Company
Method: Glucose-6-phosphate dehydrogenase (G6PDH): Lyophilized G6PDH from Leuconostoc mesenteroides was purchased from Worthington Biochemical Company. G6PDH in 50 mM Tris-HCl pH 7.8 was exposed to 48° C. for 15 min, which reduced activity by 50%. G6PDH in 50 mM Tris-HCl pH 7.8 was heat shocked in the absence and presence of 14, 100, 200, and 400 mM sugars: maltose, trehalose, glucose and sucrose. […] The reaction (1.5 ml) included 2.97 mM MgCl2, 50 mM Tris-HCl pH 7.8, 0.6 mM β-NADP^+ (freshly prepared), 10 mM Glucose-6-phosphate , and 595 ng heat shocked G6PDH. Production of NADPH was followed for 3 min at 340 nm using Lambda 3A UV/VIS spectrophotometer (PERKIN-ELMER). A time course experiment with two replications was conducted where G6PDH was treated in the absence and in the presence of 400 mM maltose, glucose, sucrose and trehalose at 48° C. for 0, 10, 15, 20 and 25 min.
To test whether this protection is general, compatible solute assays were performed using G6PDH, which uses D-glucose-6-phosphate and NAD(P)^+ as substrates to produce D-glucono-δ-lactone-P and NAD(P)H (FIG. 4B). […] The same performance was seen (FIG. 7B), when the time was extended to 25 min in the presence of 400 mM of the above sugars.

T1 sequence (P11411 whole entry): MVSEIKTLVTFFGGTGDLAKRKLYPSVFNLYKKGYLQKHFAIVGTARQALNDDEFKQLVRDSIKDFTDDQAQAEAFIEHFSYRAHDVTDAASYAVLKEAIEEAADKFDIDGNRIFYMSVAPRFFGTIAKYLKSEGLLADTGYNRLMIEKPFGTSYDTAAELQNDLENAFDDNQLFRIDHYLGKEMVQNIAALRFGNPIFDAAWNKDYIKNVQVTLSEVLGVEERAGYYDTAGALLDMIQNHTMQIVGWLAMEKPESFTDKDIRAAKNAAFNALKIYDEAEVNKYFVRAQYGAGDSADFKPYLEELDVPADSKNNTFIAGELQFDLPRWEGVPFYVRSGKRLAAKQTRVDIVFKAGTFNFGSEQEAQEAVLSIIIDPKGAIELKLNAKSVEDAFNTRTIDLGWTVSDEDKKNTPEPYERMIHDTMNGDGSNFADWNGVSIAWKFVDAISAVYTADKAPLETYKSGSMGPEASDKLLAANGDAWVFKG

Row | SMILES | protection of SspI activity (SspI; 400 mM sugar) | protection of SspI activity, time course (SspI; 400 mM sugar) | electron transport chain activity protected during heat shock ([1]; 112 mM sugar) | electron transport chain activity protection after freezing ([2]; 112 mM sugar) | protection of SspI function (SspI) | protection of SspI function (SspI; listed as Maltose) | protection of SspI activity (SspI; 200 mM sugar) | electron transport chain activity protected during heat shock ([1]; 2.5 mM sugar) | electron transport chain activity protected during heat shock ([1]; 14 mM sugar) | protection of G6PDH activity [3] | electron transport chain activity protection after freezing ([2]; 2.5 mM sugar) | electron transport chain activity protection after freezing ([2]; 14 mM sugar) | electron transport chain activity protection after freezing, reached with increasing concentration ([2]; increasing concentration (concentration not given; up to 112 mM tested))
1 | O=C[C@H](O)[C@@H](O)[C@H](O)[C@H](O)CO [glucose, reference compound] | 100% | 100% | 30% | 47% |  |  |  |  |  |  |  |  | 
2 | OC[C@H]1O[C@H](O[C@H]2[C@H](O)[C@@H](O)[C@H](O)O[C@@H]2CO)[C@H](O)[C@@H](O)[C@@H]1O [maltose, 4-O-α-D-Glucopyranosyl-β-D-glucose] | 85-90% | about 90% | 45% |  | able to partially protect SspI function | performed as well as trehalose | 80-90% | 3% | 5% | performed as well as the other compatible solute sugars | 2% | 24% | 93%
3 | OC[C@H]1O[C@@](CO)(O[C@H]2O[C@H](CO)[C@@H](O)[C@H](O)[C@H]2O)[C@@H](O)[C@@H]1O [sucrose] | 100% | 100% |  |  |  |  |  |  |  |  |  |  | 
4 | OC[C@H]1O[C@H](O[C@H]2O[C@H](CO)[C@@H](O)[C@H](O)[C@H]2O)[C@H](O)[C@@H](O)[C@@H]1O [trehalose] | 100% | 100% | 54% |  |  |  | 100% |  |  |  |  |  | 
